Literature values as cited in patent US10874615B2, “Formulation having controlled, delayed release of active ingredient” (Merck Patent GmbH, priority 2015, dated 2020).

Conditions: after oral administration; first-pass metabolism

bioavailability: 25-30%
Compound: CC(C)NCC(O)COc1cccc2ccccc12 (stereo not shown) [propranolol]
